How the values were obtained:
CYP3A4/5 [1] = system: CYP3A4/5
Experimental: Cryopreserved human hepatocytes from two different donors were obtained from Tissue Transformation Technologies (Edison, N.J.). […] CYP3A4/5 enzyme activity was then determined as follows.
The incubation medium was then loaded onto individual wells of preconditioned 30 mg OASIS plates, which were washed two times with 200 μL of water. For each well, the flow-through was combined with the water washes and counted in a beta-counter after addition of scintillation fluid. 6-p-hydroxytestosterone was eluted from the OASIS plates with 1 mL of methanol, dried under N2, and reconstituted in 200 uL of 50% acetonitrile/water (50:50) containing 0.1% of formic acid. Aliquots were injected into an HPLC-MS/MS system for quantification of 6β-hydroxytestosterone. Quantification was based on comparison of peak areas with those of a standard curve that was treated and extracted exactly like unknown samples.

CYP3A4/5 [2] = biological target: T1, CYP3A4/5 (Homo sapiens, UniProt P08684); conditions: human hepatocytes, 200 μM testosterone, 10 μM ketoconazole, 1 hour
T1 sequence (P08684 2-503): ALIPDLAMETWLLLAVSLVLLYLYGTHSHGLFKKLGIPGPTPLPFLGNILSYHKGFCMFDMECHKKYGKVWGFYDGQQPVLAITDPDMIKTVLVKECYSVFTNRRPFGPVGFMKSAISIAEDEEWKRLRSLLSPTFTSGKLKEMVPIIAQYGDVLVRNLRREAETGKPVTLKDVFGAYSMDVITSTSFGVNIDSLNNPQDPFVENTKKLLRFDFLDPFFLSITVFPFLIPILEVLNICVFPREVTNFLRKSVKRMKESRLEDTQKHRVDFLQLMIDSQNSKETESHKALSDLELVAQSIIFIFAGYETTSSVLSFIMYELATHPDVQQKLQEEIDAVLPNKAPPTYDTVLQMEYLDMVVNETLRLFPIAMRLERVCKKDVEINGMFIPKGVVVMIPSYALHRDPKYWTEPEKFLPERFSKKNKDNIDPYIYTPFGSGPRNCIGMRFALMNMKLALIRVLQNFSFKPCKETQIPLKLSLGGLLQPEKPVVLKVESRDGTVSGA
Experimental: For each well, the flow-through was combined with the water washes and counted in a beta-counter after addition of scintillation fluid.
Aliquots were injected into an HPLC-MS/MS system for quantification of 6β-hydroxytestosterone. Quantification was based on comparison of peak areas with those of a standard curve that was treated and extracted exactly like unknown samples.

CYP3A4/5 [3] = biological target: T1, CYP3A4/5; test: in vitro; conditions: pH 7.6; for IC50: microsomes
Experimental: Pooled HLM were obtained from Gentest Corp. (Woburn, Mass.). Inhibitors were added to the reaction mixture from stock solutions in DMSO, giving a final solvent concentration of 0.6% (v/v). No inhibitor controls contained an equivalent amount of vehicle. Following preincubation for 10 minutes at 37° C., reactions were started by addition of 1 mM NADPH and an NADPH regenerating system containing 5 mM glucose-6-phosphate, 3 mM MgCl2, and 1 U/mL glucose-6-phosphate dehydrogenase. Assays were conducted for 10 minutes at 37° C. and stopped by addition of HCl to a final concentration of 0.1 N. Plates were then centrifuged for 10 minutes in a microplate rotor and supernatants loaded into the wells of a preconditioned 30 mg OASIS 96-well HLB plate. OASIS HLB 96 well extraction plates containing 10 or 30 mg of OASIS sorbent and vacuum manifold were purchased from Waters Corp. Vacuum was applied and the void volume collected in the collection plate. Then, 200 μL of water was added, vacuum was applied again, and the wash was collected into the same plate. This step was repeated. Pooled void volume and water washes were transferred into scintillation vials and counted in a beta-scintillation counter. Alternatively, aliquots were counted in […] scintillation plates using a TOPCOUNT scintillation counter (Packard, Perkin Elmer, Boston, Mass.). For the calculation of enzyme activity, product counts were corrected by subtraction of counts obtained in control incubations performed in the absence of NADPH regenerating system.
Total radioactivity was 100,000 to 200,000 dpm, reaction volume was 100 μL, and solvent concentration (coming from inhibitor stock solutions) was 0.3-0.7% DMSO and 0.5% acetonitrile (v/v). […] Radioactivity was determined using a Beckman beta scintillation counter, or by counting 120 μL aliquots in 96-well scintillation plates using a TOPCOUNT scintillation counter. […]
Without using the known ^TV/K ratio (which would be tautological, since it was derived from SAP), v′, the apparent formation rate of unlabelled product, can be calculated. […]

CYP3A4/5 [4] = biological target: T1, CYP3A4/5; test: in vitro; conditions: microsomes
Experimental: Quantification of 6β-hydroxytestosterone and 2β-hydroxytestosterone. Aliquots of the assay reaction mixture and of metabolite standard curves were analyzed by HPLC using an Agilent HP1100 liquid chromatograph (Agilent Technologies) equipped with a CTC Analytics PAL autosampler (HTS PAL; CTC Analytics AG, Switzerland). Chromatography was performed on an XTERRA MS C18 column (4.6 mm×5 cm; 5 μm; Waters Corp.) at a flow rate of 1 mL/min, using a mobile phase consisting of a mixture of 0.1% formic acid in water (A) and 0.1% formic acid in acetonitrile (B) (linear gradient for 4 min from 5-100% B; 2 min at 100% B). The eluant was diverted to waste for the first minute, and then to a Sciex API-2000 triple quadrupole mass spectrometer with a Turbo Ionspray ionization source operated in the positive ion mode. […] Metabolite concentrations were determined by weighted linear least-squares regression analysis of peak area ratios vs. those of a standard curve, using Analyst Quantitation Wizard software version 1.4.

CYP3A4 = CYP3A4 (Homo sapiens, UniProt P08684); conditions: read-out: IC50 (Draper et al.); competitive substrate; cited from earlier work
Chain of CYP3A4 (P08684 whole entry): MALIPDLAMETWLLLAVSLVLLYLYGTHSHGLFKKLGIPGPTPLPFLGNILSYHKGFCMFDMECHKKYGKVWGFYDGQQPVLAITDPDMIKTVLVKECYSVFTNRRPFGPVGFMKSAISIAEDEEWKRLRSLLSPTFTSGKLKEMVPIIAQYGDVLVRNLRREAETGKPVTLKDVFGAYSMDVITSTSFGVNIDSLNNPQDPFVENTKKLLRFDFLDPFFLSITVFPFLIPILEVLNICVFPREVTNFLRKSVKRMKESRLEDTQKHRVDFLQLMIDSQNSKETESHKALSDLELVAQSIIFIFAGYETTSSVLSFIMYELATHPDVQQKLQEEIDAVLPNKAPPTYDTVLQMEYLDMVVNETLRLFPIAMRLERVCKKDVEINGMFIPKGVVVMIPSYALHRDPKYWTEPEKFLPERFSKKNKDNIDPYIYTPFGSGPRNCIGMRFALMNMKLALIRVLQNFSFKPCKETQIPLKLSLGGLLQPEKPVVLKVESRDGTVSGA

CYP3A4/5 [5] = biological target: T1, CYP3A4/5; conditions: HLM
CYP3A4/5 [6] = biological target: T1, CYP3A4/5; conditions: HLM; remark: listed apart in the source

CC(=O)N1CCN(c2ccc(OCC3COC(Cn4ccnc4)(c4ccc(Cl)cc4Cl)O3)cc2)CC1 (stereo not shown) [Ketoconazole]
Inhibition of 6β-hydroxytestosterone formation in cultured hepatocytes (CYP3A4/5 [1]): almost completely inhibited
Inhibition of [^3H]-H2O formation in cultured hepatocytes (CYP3A4/5 [1]): almost completely inhibited
Formation rate of 6β-hydroxytestosterone (CYP3A4/5 [2]): Not detected

C[C@]12CC[C@H]3[C@@H](CCC4=CC(=O)CC[C@@]43C)[C@@H]1CC[C@@H]2O [testosterone]
V′max (apparent maximal rate of product formation) (CYP3A4/5 [3]): 1.3 ± 0.1 nmol/min/mg

CC(C)C[C@H]1C(=O)N2CCC[C@H]2[C@]2(O)O[C@](NC(=O)[C@@H]3C=C4c5cccc6[nH]c(Br)c(c56)C[C@H]4N(C)C3)(C(C)C)C(=O)N12 [Bromocriptine]
IC50 (CYP3A4/5 [3]): 1200 ± 300 nM
IC50 (CYP3A4/5 [4]): 1400 ± 10 nM

CC[C@H]1OC(=O)[C@H](C)[C@@H](O[C@H]2C[C@@](C)(OC)[C@@H](O)[C@H](C)O2)[C@H](C)[C@@H](O[C@@H]2O[C@H](C)C[C@H](N(C)C)[C@H]2O)[C@](C)(O)C[C@@H](C)C(=O)[C@H](C)[C@@H](O)[C@]1(C)O [erythromycin]
IC50 (CYP3A4): 130000 nM

COC(=O)C1=C(C)NC(C)=C(C(=O)OCCN(C)Cc2ccccc2)C1c1cccc([N+](=O)[O-])c1 (stereo not shown) [Nicardipine]
n (Hill coefficient) LC-MS (CYP3A4/5 [5]): 2.7
n (Hill coefficient) Radiometric (CYP3A4/5 [6]): 2.5

Clc1ccc(COC(Cn2ccnc2)c2ccc(Cl)cc2Cl)c(Cl)c1 (stereo not shown) [Miconazole]
IC50 (CYP3A4/5 [3]): 60 ± 10 nM

— patent publication US20080145886A1, “Assay for Cytochrome P450 Isoforms 3A4 and 3A5” (priority 2004, published 2008)
